Laboratory results from patent publication US20260215423A1, “NOVEL CARBOXAMIDE AND SULFONAMIDE PESTICIDAL COMPOUNDS” (SYNGENTA CROP PROTECTION AG, priority 2023, published 2026).

How the values were obtained:
Assay type in all cases: in vivo
[1] = test system: Myzus persicae (Green Peach Aphid); assay: Myzus persicae (Green Peach Aphid): Feeding/Contact Activity, sunflower leaf discs; details: foliar, 144 h, application rate of 200 ppm, sunflower leaf discs sprayed, aphid population of mixed ages, 6 days after infestation
Procedure: Example B6: Myzus persicae (Green Peach Aphid):Feeding/Contact Activity
Sunflower leaf discs were placed onto agar in a 24-well microtiter plate and sprayed with aqueous test solutions prepared from 10′000 ppm DMSO stock solutions. After drying, the leaf discs were infested with an aphid population of mixed ages. The samples were assessed for mortality 6 days after infestation.

[2] = test system: Myzus persicae (Green Peach Aphid); assay: Myzus persicae (Green Peach Aphid). Intrinsic Activity; details: 120 h, test rate of 12 ppm, mixed with sucrose solution, feeding through Parafilm, 5 days after infestation
From the text: Example B7: Myzus persicae (Green Peach Aphid). Intrinsic Activity
Test compounds prepared from 10′000 ppm DMSO stock solutions were applied by pipette into 24-well microtiter plates and mixed with sucrose solution. The plates were closed with a stretched Parafilm. A plastic stencil with 24 holes was placed onto the plate and infested pea seedlings were placed directly on the Parafilm. The infested plate was closed with a gel blotting paper and another plastic stencil and then turned upside down. The samples were assessed for mortality 5 days after infestation.

[3] = test system: Myzus persicae (Green Peach Aphid); assay: Myzus persicae (Green Peach Aphid) Feeding/Contact Activity, eggplant leaf discs; details: foliar, 144 h, application rate of 200 ppm, eggplant leaf discs sprayed, aphid population of mixed ages, 6 days after infestation, read-out: growth inhibition
From the text: Example B8: Myzus persicae (Green Peach Aphid) Feeding/Contact Activity Eggplant leaf discs were placed onto agar in a 24-well microtiter plate and sprayed with aqueous test solutions prepared from 10′000 ppm DMSO stock solutions. After drying, the leaf discs were infested with an aphid population of mixed ages. […]

[4] = test system: Plutella xylostella (Diamond back moth); assay: Plutella xylostella (Diamond back moth); details: 192 h, application rate of 200 ppm, artificial diet treated by pipetting, Plutella eggs, 8 days after infestation, read-out: effect in at least one of the two categories (mortality or growth inhibition)
Procedure: After drying, Plutella eggs were pipetted through a plastic stencil onto a gel blotting paper and the plate was closed with it. The samples were assessed for mortality and growth inhibition in comparison to untreated samples 8 days after infestation.

[5] = test system: Tetranychus urticae (Two-Spotted Spider Mite); assay: Tetranychus urticae (Two-Spotted Spider Mite): Feeding/Contact Activity; details: foliar, 192 h, application rate of 200 ppm, bean leaf discs sprayed, mite population of mixed ages (mobile stages), 8 days after infestation
Procedure: Example B11: Tetranychus urticae (Two-Spotted Spider Mite):Feeding/Contact Activity
Bean leaf discs on agar in 24-well microtiter plates were sprayed with aqueous test solutions prepared from 10,000 ppm DMSO stock solutions. After drying the leaf discs were infested with a mite population of mixed ages. The samples were assessed for mortality on mixed population (mobile stages) 8 days after infestation.

[6] = test system: Bemisia tabaci (Cotton White Fly); assay: Bemisia tabaci (Cotton White Fly): Feeding/Contact Activity; details: foliar, 144 h, application rate of 200 ppm, cotton leaf discs sprayed, adult white flies, 6 days after incubation
Procedure: Example B1: Bemisia tabaci (Cotton White Fly): Feeding/Contact Activity
Cotton leaf discs were placed on agar in 24-well microtiter plates and sprayed with aqueous test solutions prepared from 10′000 ppm DMSO stock solutions. After drying the leaf discs were infested with adult white flies. The samples were checked for mortality 6 days after incubation.

[7] = test system: Diabrotica balteata (Corn root worm); assay: Diabrotica balteata (Corn root worm); details: 96 h, application rate of 200 ppm, maize sprouts sprayed, L2 larvae, 4 days after infestation, read-out: effect in at least one of the two categories (mortality or growth inhibition)
Procedure: Example B2: Diabrotica balteata (Corn root worm)
Maize sprouts placed onto an agar layer in 24-well microtiter plates were treated with aqueous test solutions prepared from 10′000 ppm DMSO stock solutions by spraying. After drying, the plates were infested with L2 larvae (6 to 10 per well). The samples were assessed for mortality and growth inhibition in comparison to untreated samples 4 days after infestation.

[8] = test system: Euschistus heros (Neotropical Brown Stink Bug); assay: Euschistus heros (Neotropical Brown Stink Bug); details: 120 h, application rate of 200 ppm, soybean leaves sprayed, N2 nymphs, 5 days after infestation, read-out: effect in at least one of the two categories (mortality or growth inhibition)
Procedure: Example B3: Euschistus heros (Neotropical Brown Stink Bug)
Soybean leaves on agar in 24-well microtiter plates were sprayed with aqueous test solutions prepared from 10′000 ppm DMSO stock solutions. After drying the leaves were infested with N2 nymphs. The samples were assessed for mortality and growth inhibition in comparison to untreated samples 5 days after infestation.

[9] = test system: Frankliniella occidentalis (Western Flower Thrips); assay: Frankliniella occidentalis (Western Flower Thrips): Feeding/Contact Activity, sunflower leaf discs; details: foliar, 168 h, application rate of 200 ppm, sunflower leaf discs sprayed, population of mixed ages, 7 days after infestation
Procedure: Example B4: Frankliniella occidentalis (Western Flower Thrips):Feeding/Contact Activity
(§1) Sunflower leaf discs were placed on agar in 24-well microtiter plates and sprayed with aqueous test solutions prepared from […] stock solutions. After drying the leaf discs were infested with a Frankliniella population of mixed ages. The samples were assessed for mortality 7 days after infestation.

[10] = test system: Frankliniella occidentalis (Western Flower Thrips); assay: Frankliniella occidentalis (Western Flower Thrips) Feeding/Contact Activity, bean leaf discs; details: foliar, 96 h, application rate of 200 ppm, bean leaf discs sprayed, population of mixed ages, 4 days after infestation, read-out: growth inhibition
Procedure: as §1, with “Example B5: Frankliniella occidentalis (Western Flower Thrips) Feeding/Contact Activity Bean” for “Sunflower”, “4” for “7”

[11] = test system: Spodoptera littoralis (Egyptian Cotton Leaf Worm); assay: Spodoptera littoralis (Egyptian Cotton Leaf Worm); details: foliar, 72 h, application rate of 200 ppm, cotton leaf discs sprayed, five L1 larvae, 3 days after infestation, read-out: control (mortality, anti-feeding effect, growth inhibition)
Procedure: Example B10: Spodoptera littoralis (Egyptian Cotton Leaf Worm)
Cotton leaf discs were placed onto agar in 24-well microtiter plates and sprayed with aqueous test solutions prepared from 10′000 ppm DMSO stock solutions. After drying the leaf discs were infested with five L1 larvae. The samples were assessed for mortality, anti-feeding effect, and growth inhibition in comparison to untreated samples 3 days after infestation. Control of Spodoptera littoralis by a test sample is given when at least one of the categories mortality, anti-feedant effect, and growth inhibition is higher than the untreated sample.

CCC(=O)NCc1cc(OC[C@H](C)NS(=O)(=O)C(F)(F)F)cnc1Cl [P-1]
≥ 80%: mortality at 200 ppm [1] | mortality at 12 ppm [2]

C[C@@H](COc1ccc(Cl)c(CNC(=O)C2CC2)c1)NS(=O)(=O)C(F)(F)F [P-2]
≥ 80%: mortality at 200 ppm [1] | mortality at 12 ppm [2] | inhibition at 200 ppm [3] | percent effect (mortality or growth inhibition) at 200 ppm [4] | mortality at 200 ppm [5]

CCC(=O)NCc1cc(OC[C@H](C)N(COC)S(=O)(=O)C(F)(F)F)ccc1Cl [P-3, N-[[2-chloro-5-[(2S)-2-[methoxymethyl(tri-fluoromethylsulfonyl)-amino]propoxy]phenyl]methyl]propanamide]
≥ 80%: mortality at 200 ppm [6] | percent effect (mortality or growth inhibition) at 200 ppm [7] | percent effect (mortality or growth inhibition) at 200 ppm [8] | mortality at 200 ppm [9] | mortality at 200 ppm [1] | mortality at 12 ppm [2] | inhibition at 200 ppm [3] | percent effect (mortality or growth inhibition) at 200 ppm [4] | mortality at 200 ppm [5]

CCC(=O)NCc1cc(OC[C@H](C)NS(=O)(=O)C(F)(F)F)ccc1Cl [P-4]
≥ 80%: percent effect (mortality or growth inhibition) at 200 ppm [7] | percent effect (mortality or growth inhibition) at 200 ppm [8] | mortality at 200 ppm [9] | mortality at 200 ppm [1] | mortality at 12 ppm [2] | inhibition at 200 ppm [3] | percent effect (mortality or growth inhibition) at 200 ppm [4] | mortality at 200 ppm [5]

CCC(=O)NCc1cc(OC[C@H](C)N(COC)S(=O)(=O)C(F)(F)F)cnc1Cl [P-5, N-[[2-chloro-5-[(2S)-2-[methoxymethyl(tri-fluoromethylsulfonyl)-amino]propoxy]-3-pyridyl]methyl]propan-amide]
≥ 80%: mortality at 200 ppm [1] | mortality at 12 ppm [2] | inhibition at 200 ppm [3]

CCC(=O)NC(C)(C)c1cc(OC[C@H](C)NS(=O)(=O)C(F)(F)F)ccc1Cl [P-15, N-[1-[2-chloro-5-[(2S)-2-(trifluoromethylsul-fonylamino)propoxy]phenyl]-1-methylethyl] propanamide]
≥ 80%: mortality at 200 ppm [5]

CCC(=O)NCc1cc(OC[C@H](C)N(C(=O)CC)S(=O)(=O)C(F)(F)F)ccc1Cl [P-18, N-[[2-chloro-5-[(2S)-2-[propanoyl(trifluoro-methylsulfonyl)amino]propoxy]phenyl]methyl] propanamide]
≥ 80%: percent effect (mortality or growth inhibition) at 200 ppm [7] | percent effect (mortality or growth inhibition) at 200 ppm [8] | inhibition at 200 ppm [10] | mortality at 12 ppm [2] | inhibition at 200 ppm [3] | percent effect (mortality or growth inhibition) at 200 ppm [4] | mortality at 200 ppm [11] | mortality at 200 ppm [5]

C[C@@H](COc1cnc(Cl)c(CNC(=O)C2CCC2(F)F)c1)NS(=O)(=O)C(F)(F)F (stereo partly shown) [P-22]
≥ 80%: inhibition at 200 ppm [10]

C[C@@H](COc1cnc(Cl)c(CNC(=O)C2CCC2)c1)NS(=O)(=O)C(F)(F)F [P-24]
≥ 80%: inhibition at 200 ppm [10] | mortality at 12 ppm [2] | inhibition at 200 ppm [3]

C[C@@H](COc1cnc(Cl)c(CNC(=O)C23CC(C(F)(F)F)(C2)C3)c1)NS(=O)(=O)C(F)(F)F [P-25, N-[[2-chloro-5-[(2S)-2-(trifluoromethylsulfon-ylamino)propoxy]-3-pyridyl]methyl]-3-(tri-fluoromethyl)bicyclo [1.1.1]pentane-1-carbox-amide]
≥ 80%: inhibition at 200 ppm [10]

C[C@@H](COc1cnc(Cl)c(CNC(=O)C2CC(F)(F)C2)c1)NS(=O)(=O)C(F)(F)F [P-35, N-[[2-chloro-5-[(2S)-2-(trifluoromethylsul-fonylamino)propoxy]-3-pyridyl]methyl]-3,3-difluoro-cyclobutane-carboxamide]
≥ 80%: inhibition at 200 ppm [10] | inhibition at 200 ppm [3]
